Assay results from patent US20250215010A1, “DIAZABICYCLOOCTANE DERIVATIVES USEFUL AS MATRIX METALLOPROTEINASE INHIBITORS” (VASA THERAPEUTICS SPOLKA Z OGRANICZONA ODPOWIEDZIALNOSCIA, priority 2022, published 2025).

How the values were obtained:
Format in all cases: biochemical
MMP1 = molecular target: T1, MMP1 (Homo sapiens, UniProt P03956); experiment: MMP-1 colorimetric inhibition assay (Enzo kit BML-AK404); conditions: thiopeptide substrate, absorbance 415 nm; read-out: MMP 1 IC50 class
T1 sequence (P03956 100-269 limits assumed): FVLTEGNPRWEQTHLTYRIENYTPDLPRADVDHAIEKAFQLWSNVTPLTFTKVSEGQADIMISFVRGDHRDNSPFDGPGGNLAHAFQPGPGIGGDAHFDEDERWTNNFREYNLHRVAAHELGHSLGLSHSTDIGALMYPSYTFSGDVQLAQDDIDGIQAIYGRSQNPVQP
Procedure: (§1) The inhibitory activities of the compounds of the invention were assessed in 96-well microplate format using MMP1, MMP2, MMP9 and MMP13 colorimetric assay kits and TACE fluorometric assay kit from Enzo Life Sciences, Inc. The inhibitory effect of the compounds of the invention on ADAM10 activity were evaluated in 96-well microplate format using fluorometric assay from AnaSpec, Inc.
(§2) The MMP-1 Colorimetric Drug Discovery Kit (catalog #BML-AK404) is a complete assay system designed to screen inhibitors of matrix metalloproteinase-1 using a thiopeptide as a chromogenic substrate (Ac-PLG-[2-mercapto-4-methylpentanoyl]-LG-OC2H5). The MMP cleavage site peptide bond is replaced by a thioester bond in the thiopeptide. Hydrolysis of this bond by an MMP produces a sulfhydryl group, which reacts with DTNB [5,5′-dithiobis(2-nitrobenzoic acid), Ellman's reagent] to form 2-nitro-5-thiobenzoic acid, that can be detected spectrophotometrically.
(§3) The inhibitory activities of the compounds of the invention against MMP1, MMP2, MMP9 and MMP13 were tested according to the manufacturer's assay protocols and the absorbance at 415 nm was monitored using the Tecan Infinite® 200 Pro F Nano^+ microplate reader.
(§4) The normalized values were analyzed using GraphPadPrism 9 for Windows (GraphPad Software, San Diego, CA, USA) software by plotting inhibition curves and determining the IC50 values (in nM).

MMP2 = molecular target: T2, MMP2 (Homo sapiens, UniProt P08253); experiment: MMP-2 colorimetric inhibition assay (Enzo kit BML-AK408); conditions: thiopeptide substrate, absorbance 415 nm; read-out: MMP 2 IC50 class
T2 sequence (P08253 110-660): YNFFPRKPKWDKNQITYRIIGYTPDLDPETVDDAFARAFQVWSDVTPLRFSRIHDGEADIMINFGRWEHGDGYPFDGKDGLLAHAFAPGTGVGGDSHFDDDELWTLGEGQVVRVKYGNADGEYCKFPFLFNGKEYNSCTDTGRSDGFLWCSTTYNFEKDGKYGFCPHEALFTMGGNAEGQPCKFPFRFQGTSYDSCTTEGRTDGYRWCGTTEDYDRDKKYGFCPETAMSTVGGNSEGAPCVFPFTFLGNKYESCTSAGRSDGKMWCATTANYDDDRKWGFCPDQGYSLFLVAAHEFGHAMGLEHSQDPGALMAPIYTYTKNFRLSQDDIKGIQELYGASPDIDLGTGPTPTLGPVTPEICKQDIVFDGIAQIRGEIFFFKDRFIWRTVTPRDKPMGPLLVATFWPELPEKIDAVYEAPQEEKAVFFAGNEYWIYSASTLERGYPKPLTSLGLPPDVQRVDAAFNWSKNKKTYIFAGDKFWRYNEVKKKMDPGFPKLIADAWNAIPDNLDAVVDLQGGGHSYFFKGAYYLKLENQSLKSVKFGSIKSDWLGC
Procedure: as §1
as §2, with “MMP-2” for “MMP-1”, “#BML-AK408)” for “#BML-AK404)”, “screen MMP-2” for “screen”, “inhibitors” for “inhibitors of matrix metalloproteinase-1”
as §3, §4

MMP13 = molecular target: T3, MMP13 (Homo sapiens, UniProt P45452); experiment: MMP-13 colorimetric inhibition assay (Enzo kit BML-AK412); conditions: thiopeptide substrate, absorbance 415 nm; read-out: MMP 13 IC50 class
T3 construct: purchased Enzo Life Sciences, Inc. BML-AK412
Procedure: as §1
as §2, with “MMP-13” for “MMP-1”, “#BML-AK412)” for “#BML-AK404)”, “metalloproteinase-13” for “metalloproteinase-1”
as §3, §4

ADAM17 (TACE) = ADAM17 (TACE) (Homo sapiens, UniProt P78536); experiment: TACE fluorometric inhibition assay (Enzo kit BML-AK310); conditions: quenched fluorogenic peptide, ex/em 320/420 nm; read-out: TACE IC50 class
Procedure: as §1
The TACE Fluorometric Drug Discovery Kit (catalog #BML-AK310) is a complete assay system designed to screen ADAM17 (TACE) inhibitors using a quenched fluorogenic peptide: Mca-PLAQAV-Dpa-RSSSR—NH2. Mca fluorescence is quenched by the Dpa group until cleavage by proteases separates the two moieties leading to an increase in Mca fluorescence.
The inhibitory activity of the compounds of the invention against TACE was tested according to the manufacturer's assay protocol and the fluorescence was monitored at excitation/emission wavelengths=320 nm/420 nm using Tecan Infinite® 200 Pro F Nano^+ microplate reader.
as §4

MMP9 = MMP9 (Homo sapiens, UniProt P14780); experiment: MMP-9 colorimetric inhibition assay (Enzo kit BML-AK410); conditions: thiopeptide substrate, absorbance 415 nm; read-out: MMP 9 IC50 class
Procedure: as §1
as §2, with “MMP-9” for “MMP-1”, “#BML-AK410)” for “#BML-AK404)”, “metalloproteinase-9” for “metalloproteinase-1”
as §3, §4

ADAM17 (TACE), sequence (P78536 215-477 limits assumed): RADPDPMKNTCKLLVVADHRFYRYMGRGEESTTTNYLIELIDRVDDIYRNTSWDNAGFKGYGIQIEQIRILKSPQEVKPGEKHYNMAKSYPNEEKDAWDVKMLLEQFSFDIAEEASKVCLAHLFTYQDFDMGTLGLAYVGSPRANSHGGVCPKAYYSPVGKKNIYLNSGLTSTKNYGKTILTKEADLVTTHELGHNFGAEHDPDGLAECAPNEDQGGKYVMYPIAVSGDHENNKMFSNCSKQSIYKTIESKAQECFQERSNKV
MMP9, sequence (P14780 94-707): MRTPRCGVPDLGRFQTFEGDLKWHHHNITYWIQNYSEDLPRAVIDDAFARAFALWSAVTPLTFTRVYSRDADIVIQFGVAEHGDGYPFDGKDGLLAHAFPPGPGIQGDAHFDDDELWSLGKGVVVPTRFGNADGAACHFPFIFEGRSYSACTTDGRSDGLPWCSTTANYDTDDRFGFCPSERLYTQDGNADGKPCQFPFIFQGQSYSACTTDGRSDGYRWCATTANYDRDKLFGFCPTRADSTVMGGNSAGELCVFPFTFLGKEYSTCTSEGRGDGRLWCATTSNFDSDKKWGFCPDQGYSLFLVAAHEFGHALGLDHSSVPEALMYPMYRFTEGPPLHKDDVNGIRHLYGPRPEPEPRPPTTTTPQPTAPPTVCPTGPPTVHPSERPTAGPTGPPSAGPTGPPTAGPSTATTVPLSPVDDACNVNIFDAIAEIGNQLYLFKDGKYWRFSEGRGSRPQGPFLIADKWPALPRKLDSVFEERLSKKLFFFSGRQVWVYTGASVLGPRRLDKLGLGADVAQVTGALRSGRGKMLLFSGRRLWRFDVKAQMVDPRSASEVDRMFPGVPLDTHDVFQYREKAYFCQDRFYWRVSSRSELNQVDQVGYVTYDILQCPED

Compound | IC50 (MMP1) [nM] | IC50 (MMP2) [nM] | IC50 (MMP13) [nM] | IC50 (ADAM17 (TACE)) [nM] | IC50 (MMP9) [nM]
COCCOC(=O)N1[C@@H]2CC[C@H]1[C@H](C(=O)NO)N(S(=O)(=O)c1ccc(OC3CCN(C(C)C)CC3)nc1)C2 [Example 75, 2-methoxyethyl (1S,2R,5R)-2-(hydroxycarbamoyl)-3-((6-((1-isopropyl-piperidin-4-yl)oxy)-pyridin-3-yl)-sulfonyl)-3,8-diaza-bicyclo[3.2.1]octane-8-carboxylate] | 1000 to 10000 | 50 to 1000 | 50 to 1000 | 1000 to 10000 | 50 to 1000
O=C(NO)[C@H]1[C@@H]2CC[C@H](CN1S(=O)(=O)c1ccc(Oc3ccc(F)cc3)nc1)N2C(=O)N1CCOCC1 [Example 68, (1S,2R,5R)-3-((6-(4-fluorophenoxy)pyridin-3-yl)sulfonyl)-N-hydroxy-8-(morpholine-4-carbonyl)-3,8-diazabicyclo[3.2.1]octane-2-carboxamide] | 1000 to 10000 | < 50 | < 50 | 1000 to 10000 | 50 to 1000
CC(C)Oc1ccc(Oc2ccc(S(=O)(=O)N3C[C@H]4CC[C@@H]([C@@H]3C(=O)NO)N4C(=O)C(C)(C)C)cn2)cc1 [Example 61, (1S,2R,5R)-N-hydroxy-3-((6-(4-isopropoxyphenoxy)-pyridin-3-yl)-sulfonyl)-8-pivaloyl-3,8-diazabicyclo-[3.2.1]octane-2-carboxamide] | 1000 to 10000 | < 50 | < 50 | > 10000 | 50 to 1000
COCCOC(=O)N1[C@@H]2CC[C@H]1[C@H](C(=O)NO)N(S(=O)(=O)c1ccc(Oc3nc4ccc(F)cc4o3)c(F)c1)C2 [Example 82, 2-methoxyethyl (1S,2R,5R)-3-((3-fluoro-4-((6-fluoro-benzo[d]oxazol-2-yl)oxy)phenyl)-sulfonyl)-2-(hydroxycarbamoyl)-3,8-diazabicyclo-[3.2.1]octane-8-carboxylate] | > 10000 | 1000 to 10000 | 1000 to 10000 | 50 to 1000 | 1000 to 10000
COCCOC(=O)N1[C@@H]2CC[C@H]1[C@H](C(=O)NO)N(S(=O)(=O)c1ccc(Oc3cnn(C(C)C)c3)nc1)C2 [Example 37, 2-methoxyethyl (1S,2R,5R)-2-(hydroxycarbamoyl)-3-((6-((1-isopropyl-1H-pyrazol-4-yl)-oxy)pyridin-3-yl)-sulfonyl)-3,8-diazabicyclo-[3.2.1]octane-8-carboxylate] | 1000 to 10000 | 50 to 1000 | 50 to 1000 | 50 to 1000 | 50 to 1000
COCCOC(=O)N1[C@@H]2CC[C@H]1[C@H](C(=O)NO)N(S(=O)(=O)c1ccc(OC3CCC(C)(C)CC3)nc1)C2 [Example 12, 2-methoxyethyl (1S,2R,5R)-3-((6-((4,4-dimethyl-cyclohexyl)-oxy)pyridin-3-yl)-sulfonyl)-2-(hydroxycarbamoyl)-3,8-diazabicyclo[3.2.1]-octane-8-carboxylate] | 1000 to 10000 | 50 to 1000 | 50 to 1000 | 1000 to 10000 | < 50
COCCOC(=O)N1[C@@H]2CC[C@H]1[C@H](C(=O)NO)N(S(=O)(=O)c1ccc(Oc3cnn(CC(C)C)c3)nc1)C2 [Example 38, 2-methoxyethyl (1S,2R,5R)-2-(hydroxycarbamoyl)-3-((6-((1-isobutyl-1H-pyrazol-4-yl)oxy)pyridin-3-yl)sulfonyl)-3,8-diazabicyclo-[3.2.1]octane-8-carboxylate] | 1000 to 10000 | 50 to 1000 | 50 to 1000 | 50 to 1000 | 50 to 1000
COCCOC(=O)N1[C@@H]2CC[C@H]1[C@H](C(=O)NO)N(S(=O)(=O)c1cnc(Oc3ccc(F)cc3)cn1)C2 [Example 17, 2-methoxyethyl (1S,2R,5R)-3-((5-(4-fluorophenoxy)-pyrazin-2-yl)sulfonyl)-2-(hydroxycarbamoyl)-3,8-diazabicyclo-[3.2.1]octane-8-carboxylate] | > 10000 | 1000 to 10000 | 1000 to 10000 | > 10000 | 1000 to 10000
